One test deals with castrated rat. Kind of test: In vivo rat model of androgen and anabolic activity - rat Herschberger assay. As to conditions: 3 mg/kg orally, once daily for 4 days, compared with Sham and testosterone propionate (TP) controls. An excerpt: Organ and muscle weight is on Y-axis and the numbers refer to weight in milligrams. *ρ<0.05 compared to vehicle. ^ρ<0.05 compared to TP and sham.
The following is a typical procedure of the in vivo evaluation of the selective androgens of this invention. In particular, this assay looks primarily at the ability of the selective androgens of this invention to increase muscle size in an immature, castrated rat. In addition, androgenic effects are looked at primarily by weighing the prostate and seminal vesicles. Selective compounds will show a greater increase in the levator ani relative to the prostate and seminal vesicles when compared to testosterone treated, castrated animals or to intact animals that have not been treated. Immature Sprague Dawley male rats were obtained Charles River Laboratories (Stoneridge, N.Y.). All animals were maintained in a temperature and humidity controlled room with a 12 hr light: 12 hr dark cycle, with ad lib access to food (TD 291615, Teklad, Madison, Wis.) and water. Rats were anesthetized and orchidectomized (GDX) or sham surgery (SHAM) was performed. […] The prostate, seminal vesicle and levator ani and bulba cavernous (LABC) tissues were removed, weighed and recorded. Body weights were recorded for each animal at baseline and at sacrifice.
Turning to `Cc1c(N[C@@H](c2nnc(-c3ccc(F)cc3)o2)C(C)(C)O)ccc(C#N)c1Cl` [Example 5, (R)-2-chloro-4-(1-(5-(4-fluorophenyl)-1,3,4-oxadiazol-2-yl)-2-hydroxy-2-methylpropylamino)-3-methylbenzonitrile], the “levator ani muscle (LABC) weight” value is “significantly above the non-castrated control (Sham) and testosterone propionate-treated (TP) controls”.

Another test deals with T1, androgen receptor (Rattus norvegicus, UniProt P15207).
T1 construct: purchased Invitrogen, Madison, Wis
T1 sequence (P15207 651-902 limits assumed): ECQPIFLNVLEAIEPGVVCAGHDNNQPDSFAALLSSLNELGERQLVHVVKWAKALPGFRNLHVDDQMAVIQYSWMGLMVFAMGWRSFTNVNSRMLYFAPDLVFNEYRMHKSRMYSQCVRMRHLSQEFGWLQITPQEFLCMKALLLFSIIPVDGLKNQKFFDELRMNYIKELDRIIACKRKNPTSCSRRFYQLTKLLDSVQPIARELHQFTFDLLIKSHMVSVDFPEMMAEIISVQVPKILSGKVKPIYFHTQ
Kind of test: androgen receptor binding assay (fluorescence polarization, Invitrogen AR-Fluormone).
Conditions: not given
How it is done:
The assay was performed as specified by the manufacturer (Invitrogen, Madison, Wis.). Briefly, 1 μl of 10 mM compound was added to 500 μl of AR screening buffer in a 1.5 ml eppendorf tube to make a 2×10^−5M stock. 10-fold serial dilutions of the test compounds were prepared ranging in concentration from 10^−5M to 10^−12M. Each dilution was added in triplicate to a black 384-microtiter plate. The test compounds will be diluted 2-fold in the final reaction. 2×AR-Fluormone™ complex was prepared with 2 nM Flourmone AL Green™ and 30 nM AR. 25 μl of 2× complex was aliquoted to each reaction well, such that the final reaction volume was 50 μl per well. Plate was sealed with a foil cover and incubated in the dark at room temperature for 4 h. Polarization values for each well were measured. The polarization values were plotted against the concentration of the test compound. The concentration of the test compound that results in half-maximum shift equals the IC50 of the test compound. As a control, a competition curve for R1881 (methyltrienolone) was performed for each assay. Curve Fitting was performed using GraphPad Prism® software from GraphPad™ Software Inc. Binding data are reported as a single determination if the experiment was run once only and as the average of experiments if the binding experiment was performed two or more times with that compound.
The binding data shown in table 1 (below) is from the result of a single or multiple determinations based on the same compound. Where multiple data points have been taken, the value reported is the average of the multiple determinations.
For orientation: Fluorescence polarisation rises when a labelled molecule tumbles more slowly, as on binding a larger partner.
Consider `CC(C)(O)[C@@H](Nc1ccc(C#N)c(C(F)(F)F)c1)c1nnc(-c2ccc(F)cc2)o1` [Example 1, (R)-4-(1-(5-(4-fluorophenyl)-1,3,4-oxadiazol-2-yl)-2-hydroxy-2-methylpropylamino)-2-(trifluoromethyl)benzonitrile], for which the half-inhibitory concentration (IC50) is over 1000 nM.
On the same count and under the same terms, for `Cc1c(N[C@@H](c2nnc(-c3ccc(F)cc3)o2)C(C)(C)O)ccc(C#N)c1C(F)(F)F` [Example 2, (R)-4-(1-(5-(4-fluorophenyl)-1,3,4-oxadiazol-2-yl)-2-hydroxy-2-methylpropylamino)-3-methyl-2-(trifluoromethyl)benzonitrile] the value was 40 nM; for `Cc1c(N[C@@H](c2nnc(-c3ccc(C#N)cc3)o2)C(C)(C)O)ccc(C#N)c1C(F)(F)F` [Example 3, (R)-4-(1-(5-(4-cyanophenyl)-1,3,4-oxadiazol-2-yl)-2-hydroxy-2-methylpropylamino)-3-methyl-2-(trifluoromethyl)benzonitrile], 30 nM.
For the compound `CCCc1c(N[C@@H](c2nnc(-c3ccc(C#N)cc3)o2)[C@H](C)O)ccc(C#N)c1Cl` [Example 4, 2-Chloro-4-((1R,2S)-1-(5-(4-cyanophenyl)-1,3,4-oxadiazol-2-yl)-2-hydroxypropylamino)-3-propylbenzonitrile], the half-inhibitory concentration (IC50) worked out at 0.3 nM.
On to `Cc1c(N[C@@H](c2nnc(-c3ccc(F)cc3)o2)C(C)(C)O)ccc(C#N)c1Cl` [Example 5, (R)-2-chloro-4-(1-(5-(4-fluorophenyl)-1,3,4-oxadiazol-2-yl)-2-hydroxy-2-methylpropylamino)-3-methylbenzonitrile], for which the IC50 is 6 nM.
Still for that read-out and setting: the same measure for `Cc1c(N[C@@H](c2nnc(-c3ccc(C#N)cc3)o2)C(C)(C)O)ccc(C#N)c1Cl` [Example 6, (R)-2-chloro-4-(1-(5-(4-cyanophenyl)-1,3,4-oxadiazol-2-yl)-2-hydroxy-2-methylpropylamino)-3-methylbenzonitrile]: 4 nM.
Same read-out and setting: for `Cc1c(N[C@@H](c2nnc(-c3ccc(C#N)cc3)o2)[C@H](O)C(F)(F)F)ccc(C#N)c1Cl` [Example 7, 2-chloro-4-((1R,2S)-1-(5-(4-cyanophenyl)-1,3,4-oxadiazol-2-yl)-3,3,3-trifluoro-2-hydroxypropylamino)-3-methylbenzonitrile] the value was 290 nM.

In general, IC50 refers to the midpoint of a concentration-inhibition curve. A lower IC50 goes with higher potency.
